# According to publication PMC8137473, “Preclinical trial of a MAP4K4 inhibitor to reduce infarct size in the pig: does cardioprotection in human stem cell-derived myocytes predict success in large mammals?” (Basic Research in Cardiology, 2021):
# Values joined by “and” are separate entries in the source; they are usually repeats but may differ in a detail not shown here. Equal values may be shown once.
# How the values were obtained:
# humans = settings: cited from earlier work; for cardioprotection in human trials: 16 (TRO40303), 5, 20 (cyclosporine), 21, 29 (cariporide)
# pigs = settings: cited from earlier work; for cardioprotection findings in pigs: 16 (TRO40303), 5, 20 (cyclosporine), 21, 29 (cariporide)
# 376 kinases = test system: 376 kinases; set-up: method as in PMID 30853557; settings: cited from earlier work
# hPSC-CMs = test system: hPSC-CMs; set-up: method as in PMID 30853557; settings: cited from earlier work
# [1] = set-up: method as in PMID 30853557; settings: mice, twice daily oral dosing of DMX-5804; cited from earlier work
# [2] = plasma levels of DMX-5804 in swine during DMX-10001 infusion (efficacy study); format: in vivo, pig
# Procedure: Compound concentrations after dosing were measured as follows by liquid chromatography–mass spectrometry (Pharmidex, London, UK). To 50 µL aliquots of plasma was added 200 µL of internal standard solution (methanol containing 500 ng/mL tolbutamide). Samples were then mixed (150 rpm, 20 min) and centrifuged (3000 rpm, 15 min). 75 µL of the resulting supernatant was added to 75 µL 10 mM ammonium acetate + 0.5% ammonia) and mixed (450 rpm, 15 min). Calibration standards covering the expected concentration range were prepared by spiking analyte into control matrix, with extraction and analysis in the same way as the plasma samples.
# Analysis was done by liquid chromatography–mass spectrometry using a Shimadzu Nexera X2 ultra-high-pressure liquid chromatography system coupled to a Shimadzu LCMS 8060 triple quadruple mass spectrometer (Shimadzu, Milton Keynes, UK) with Waters Acquity BEH C18 (50 × 2.1)mm, 1.7 µm column (Waters, Elstree, UK) and mobile phase components 10 mM ammonium acetate + 0.5% ammonia (A) and methanol + 0.5% ammmonia (B). Gradient was 0–0.5 min 30% B; 0.5 to 2.5 min increase to 80% B; 2.5–2.6 min increase to 98% B; 2.6–3 min 98% B; 3–3.1 min decrease to 30% B; 3.1–3.5 min 30% B. Flow rate was 0.4 mL/min. Injection volume was typically 5 µL. Detection was by multiple reaction monitoring, DMX-5804 361.9 > 304.1 (positive ion), DMX-10001 470.1 > 258.0 (negative ion), and tolbutamide 271.0 > 91.0 (positive ion). Retention times were DMX-5804 2.9 min, DMX-10001 2.1 min, and tolbutamide 1.8 min. Data processing was done by Shimadzu LabSolutions Software (Shimadzu, Milton Keynes, UK).
# Results were corrected for plasma protein binding by rapid equilibrium dialysis to calculate free drug levels, and were subjected to iterative computer modeling (XenoGesis, Alderley Park, UK) using Phoenix64 WinNonlin (Certara, Princeton, NJ), to devise the infusion protocol.
# At several time-points (see Fig. 2), blood samples were taken in lithium-heparin-coated tubes (BD, Plymouth, UK) to analyze plasma levels of DMX-10001 (pro-drug) and DMX-5804 (active compound) and in EDTA-coated tubes (BD, Plymouth, UK) to measure heart-type fatty acid binding protein (hFABP). All blood samples were kept on ice immediately after withdrawal and were centrifuged for 10 min at 3000 rpm and 4 °C within 6 h. Plasma was aliquoted and cryopreserved at − 80 °C until analysis. Levels of DMX-10001 and DMX-5804 were determined by liquid chromatography–mass spectrometry (Pharmidex, London, UK). Porcine hFABP was analyzed as described: plasma samples were thawed on ice, diluted 10 × using the standard diluent provided with the kit, and analyzed by enzyme-linked immunosorbent assays according to the manufacturer’s instructions (Life Diagnostics, West Chester, PA). Absorbance was measured at 450 nm with a microplate photometer (Multiskan EX, Thermo Scientific, Etten-Leur, The Netherlands).
# [3] = test system: engineered human heart tissue; set-up: method as in PMID 30853557; settings: cited from earlier work
# MAP4K4 = MAP4K4 (Homo sapiens, UniProt O95819); test: cell-free biochemical assay, MAP4K4 inhibition; settings: cell-free biochemical assays; read-out: IC50 against MAP4K4
# Source text: DMX-10001, a rapidly hydrolyzed phosphate pro-drug of DMX-5804, was produced by Domainex Ltd, by a modification of the latter’s synthetic route, attaching a hydrolysable phosphate group via a linker to the core of DMX-5804 (Fig. 1a). This removes a key hydrogen bonding group and prevents DMX-10001 from binding to the hinge region of the MAP4K4 kinase domain. […] Furthermore, this modest value is likely driven by minute levels of DMX-5804 either present in the sample or generated during by hydrolysis during the assay.
# aqueous solubility = format: physicochemical
# Procedure: The chemical structures of DMX-5804 and DMX-10001 are compared in Fig. 1a, highlighting the phosphate moiety of the pro-drug. The aqueous solubility of DMX-10001 was > 400-fold greater than that of DMX-5804, allowing it to be infused i.v. without prohibitive fluid volumes. Cleavage to DMX-5804 was detectable in rats within 5 min and largely complete within 60 min (Fig. 1b). Data from i.v. infusion at a range of dose levels in the pig were simultaneously fit to a three-compartment pharmacokinetic model. Plasma protein binding in pig was used to determine free drug levels (not shown). Various dosing regimens were simulated to avoid an initial spike in DMX-5804 whilst rapidly achieving the efficacious drug levels seen in mice after oral gavage (Fig. 1c).
# [4] = test system: mouse myocardial infarction; set-up: method as in PMID 30853557; settings: mice, even given an hour after reperfusion; cited from earlier work
# [5] = pigs, pro-drug DMX-10001 infusion (60 mg/kg/h 0.5 h + 17 mg/kg/h 23.5 h)
# Chain of MAP4K4 (O95819 whole entry, species assumed, the tested form may be a part): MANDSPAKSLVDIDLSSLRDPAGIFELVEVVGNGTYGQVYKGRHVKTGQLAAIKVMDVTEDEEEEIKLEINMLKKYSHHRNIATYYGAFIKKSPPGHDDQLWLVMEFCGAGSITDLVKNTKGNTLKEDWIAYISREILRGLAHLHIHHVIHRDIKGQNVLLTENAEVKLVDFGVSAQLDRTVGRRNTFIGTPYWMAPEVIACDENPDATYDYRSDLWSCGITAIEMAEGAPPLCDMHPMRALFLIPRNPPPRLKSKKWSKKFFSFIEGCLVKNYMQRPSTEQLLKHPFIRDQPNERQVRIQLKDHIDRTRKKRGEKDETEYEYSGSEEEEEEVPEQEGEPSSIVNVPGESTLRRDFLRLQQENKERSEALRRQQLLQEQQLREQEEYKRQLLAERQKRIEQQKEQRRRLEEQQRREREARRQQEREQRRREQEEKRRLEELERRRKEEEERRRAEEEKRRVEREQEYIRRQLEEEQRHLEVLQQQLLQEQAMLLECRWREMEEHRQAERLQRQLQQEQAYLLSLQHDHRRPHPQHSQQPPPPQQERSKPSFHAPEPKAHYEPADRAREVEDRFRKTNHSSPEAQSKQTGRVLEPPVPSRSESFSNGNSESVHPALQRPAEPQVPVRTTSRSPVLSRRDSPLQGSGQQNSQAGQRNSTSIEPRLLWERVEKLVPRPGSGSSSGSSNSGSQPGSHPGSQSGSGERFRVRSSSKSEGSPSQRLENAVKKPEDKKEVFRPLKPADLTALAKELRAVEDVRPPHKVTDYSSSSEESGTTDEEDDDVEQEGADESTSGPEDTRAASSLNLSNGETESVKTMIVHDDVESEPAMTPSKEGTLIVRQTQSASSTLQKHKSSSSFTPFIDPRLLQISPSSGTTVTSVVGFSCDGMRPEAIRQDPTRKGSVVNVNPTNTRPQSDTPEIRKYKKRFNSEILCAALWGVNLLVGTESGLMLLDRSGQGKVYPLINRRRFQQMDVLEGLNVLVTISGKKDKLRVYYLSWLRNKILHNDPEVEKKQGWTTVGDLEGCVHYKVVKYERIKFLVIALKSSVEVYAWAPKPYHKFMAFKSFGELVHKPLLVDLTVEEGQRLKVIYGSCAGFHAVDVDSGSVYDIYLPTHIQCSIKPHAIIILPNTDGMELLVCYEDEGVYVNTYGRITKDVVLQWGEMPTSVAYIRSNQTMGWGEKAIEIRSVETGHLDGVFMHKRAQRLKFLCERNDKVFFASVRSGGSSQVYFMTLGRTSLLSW
molecule,measurement,setting,value
liraglutide,myocardial salvage in humans,humans,improved myocardial salvage
same,results in pigs,pigs,negative results
COCCOc1ccc(-c2cn(-c3ccccc3)c3nc[nH]c(=O)c23)cc1 [DMX-5804],selectivity among 376 kinases,376 kinases,interfering potently just with MINK1/MAP4K6 and TNIK/MAP4K7
same,death from oxidative stress in hPSC-CMs,hPSC-CMs,suppressed death from oxidative stress
same,EC50,"hPSC-CMs; vCor.4U cells treated with 400 μM H2O2, read-out: EC50 for reducing cell death",500 nM
same,free AUC0–22 of DMX-5804,[1],"2,200 h.nM"
same,"target level of DMX-5804, based on successful reduction of IS in mice",[2]; after infusion with DMX-10001,achieved in all animals
same,levels of DMX-5804 generated in pigs relative to those in mice,[2]; at the corresponding times after injury,at least tenfold
same,free AUC0-24 of DMX-5804,[2]; [5],"27,900 h.nM"
same,free Cav of DMX-5804,[2]; [5],"1,160 nM"
same,DMX-5804 concentrations relative to the levels that rescued hPSC-CMs and reduced IS in mice,"[2]; swine, all times tested beginning 30 min after the start of DMX-10001 infusion",> fivefold
same,cell death in engineered human heart tissue,[3],blocked cell death
same,IC50,MAP4K4,3 nM
same,aqueous solubility,aqueous solubility,inadequate for i.v. delivery
same,reduction of infarct size (IS),[4],50% and > 50%
CC(C)CCC[C@@H](C)[C@H]1CC[C@H]2[C@@H]3CC/C(=N\O)[C@](C)(CCCO)[C@H]3CC[C@]12C [TRO40303],cardioprotection in human trials,humans,failures of cardioprotection
same,cardioprotection findings in pigs,pigs,weak or negative findings
CC(C)c1ccc(C(=O)NC(=N)N)cc1S(C)(=O)=O [cariporide],cardioprotection in human trials,humans,failures of cardioprotection
same,cardioprotection findings in pigs,pigs,weak or negative findings
Nc1ncnc2c1ncn2[C@@H]1O[C@H](CO)[C@@H](O)[C@H]1O [adenosine],protection in swine,pigs; bolus,gave no protection
